Tests used:
platelets [1] = test: Agonist-induced platelet granule secretion / activation (P-selectin expression by flow cytometry; ADP/ATP release); assay type: cell-based, human; details: for IC50: Homo sapiens, Platelet
Procedure: In order to monitor ATP release, a cocktail of 100 μM SFLLR (synthesized using solid phase Fmoc chemistry on an Applied Biosystems model 430A peptide synthesizer) and 3 mg/ml of luciferin/luciferase (Sigma, St. Louis, Mo.) in a volume of 10 μl is added to 20 μl of PRP. Samples are immediately analyzed for luminescence. Activated platelets supply the ATP necessary for luminescence of the luciferin/luciferase assay. Assays can be performed at high throughput through use of a microtiter plate system, e.g., 384-well plates and a Multidrop 384 (Thermo Labsystems, Helsinki), read with a high density imaging system, e.g., the Tundra system (Imaging Research, St. Catherine's, Ontario).
In order to assay platelet activation by cell surface marker expression, fresh PRP is isolated from donors who have not ingested aspirin for two weeks prior to donation. PRP (40 μl) is incubated with known or suspected inhibitor in DMSO or DMSO alone for 15 min. The sample is then incubated with the indicated agonist (e.g., SFLLR) for 10 min. Following incubation of the sample with the indicated agonist, 10 μl of reaction mixture is transferred to 5 μl of phycoerythrin (PE)-conjugated AC 1.2 anti-P-selectin antibody (for assessment of P-selectin surface expression) or fluorescein isothiocyanate (FITC)-conjugated PAC-1 antibody (for assessment of GPIIbIIIa activation). PBS (500 μl) is added to the sample after a 20 min incubation and the platelets are analyzed immediately by flow cytometry. Flow cytometry can be performed using, for example, a Becton-Dickinson FACSCalibur flow cytometer or its equivalent. Fluorescent channels are set at logarithmic gain. Ten thousand particles are acquired for each sample. A 530/30 band pass filter is used for FL-1 fluorescence. A 585/42 band pass filter is used for FL-2 fluorescence. FITC is measured in the FL-1 channel and PE is measured in the FL-2 channel. Data are analyzed using, for example, CellQuest software on a Macintosh PowerPC, or their equivalents.
Compounds were tested for the ability to inhibit agonist-induced ADP/ATP release from platelet dense granules using a luciferin-luciferase reporter system. In this assay, compounds were incubated with platelet-rich plasma (PRP) for 30 min. A cocktail of the platelet agonist and luciferin-luciferase was then added to the wells. Plates were immediately analyzed using a Tundra high density luminescence imager. […] As a control, compounds were also screened in a platelet-free assay for the ability to inhibit luciferin-luciferase upon exposure to ATP.
Each of the compounds was tested for inhibition of platelet activation in response to the agonists SFLLR (a thrombin mimic), U46619 (a thromboxane A2 mimic), ADP and the phorbol ester PMA.
Compounds were also tested by flow cytometry for the inhibition of SFLLR-induced GPIIbIIIa activation and P-selectin expression. In these experiments, freshly obtained PRP was prepared from healthy volunteers who had not ingested aspirin for two weeks prior to donation. Forty μl of PRP was incubated with inhibitor in DMSO or DMSO alone for 15 min. The sample was then incubated with the indicated agonist for 10 min. Following incubation of the sample with the indicated agonist, 10 μl of reaction mixture was transferred to 5 μl of PE-conjugated AC1.2 anti-P-selectin antibody (for assessment of P-selectin surface expression) or FITC-conjugated PAC-1 antibody (for assessment of GPIIbIIIa activation). PBS (500 μl) was added to the sample after a 20 min incubation and the platelets were analyzed immediately by flow cytometry. Flow cytometry was performed using a Becton-Dickinson FACSCalibur flow cytometer. Fluorescent channels were set at logarithmic gain. Ten thousand particles were acquired for each sample. A 530/30 band pass filter was used for FL-1 fluorescence. A 585/42 band pass filter was used for FL-2 fluorescence. FITC was measured in the FL-1 channel and PE was measured in the FL-2 channel.

platelets [2] = test: Platelet aggregation (aggregometer); assay type: cell-based, human; details: for IC50: Homo sapiens, Platelet
Procedure: Platelet aggregation profiling is a standard methodology, generally performed with an instrument adapted for that express purpose, for example, a Platelet Aggregation Profiler (BioData, Horsham, Pa.). The assays can generally be performed according to the instructions of the manufacturer. As exemplary conditions, 400 μl of PRP are incubated with inhibitor for 15 minutes at room temperature. The sample is then incubated for 3 minutes at 37° C. in the Platelet Aggregation Profiler. The instrument is calibrated with platelet poor plasma serving as a blank. A baseline tracing is established by monitoring the light transmittance of PRP being stirred at 1200 rpm. Aggregation is initiated by the addition of SFLLR (200 μM) and the percent of platelet aggregation is measured by the change in light transmittance for 6 minutes following addition of SFLLR.

For `CCCCCn1c2c(c(=N)c3ccccc31)CCC2` [JF081204{5C}], the “U46619-, A23187-, and PMA-induced P-selectin expression less potent than SFLLR” value (platelets [1]) was “at least 150 fold”, the IC50 (platelets [1]; agonist A23187, read-out: IC50 P-Selectin Expression Induced by A23187) was over 300 µM and the IC50 (platelets [1]; agonist PMA, read-out: IC50 P-Selectin Expression Induced by PMA) was 300 µM. For the same compound, the IC50 (platelets [1]; agonist SFLLRN, maximally stimulatory dose, read-out: IC50 P-Selectin Expression Induced by SFLLRN) was 2 µM, the IC50 (platelets [1]; agonist SFLLRN/SFLLR, human platelets, read-out: IC50 SFLLRN-induced P-selectin expression, flow cytometry) was 2 to 150 µM and the IC50 (platelets [1]; agonist U46619, read-out: IC50 P-Selectin Expression Induced by U46619) was 400 µM. The “Potency in inhibiting SFLLRLN- and epinephrine-induced activation relative to other agonists” value (platelets [1]; footnote, sentence cut off) was “#inhibit platelet activation induced by the indicated agonist is shown. The potency of this compound in inhibiting SFLLRLN- and epinephrine-induced activation was at least 100-fold greater than that o”, the IC50 (platelets [2]; agonist U-46619, read-out: IC50 Platelet Aggregation Induced by U-46619) was 400 µM and the IC50 (platelets [2]; agonist Collagen, read-out: IC50 Platelet Aggregation Induced by Collagen) was over 200 µM. The IC50 (platelets [2]; agonist Epinephrine, read-out: IC50 Platelet Aggregation Induced by Epinephrine) was 5 µM, the IC50 (platelets [2]; agonist SFLLRN, read-out: IC50 Platelet Aggregation Induced by SFLLRN) was 2 µM and the IC50 (platelets [2]; agonists SFLLRN, epinephrine, read-out: IC50 SFLLRN- and epinephrine-induced platelet aggregation) was under 5 µM. The “Inhibition of U46619- and collagen-induced platelet aggregation” value (platelets [2]; agonists U46619, collagen) was “not effective”.

In the case of `CC1CC(=O)NN=C1c1ccc(N)c([N+](=O)[O-])c1` (stereo not drawn) [6-(4-Amino-3-nitro-phenyl)-5-methyl-4,5-dihydro-2H-pyridazin-3-one], the “ADP- and collagen-induced granule release less potent than SFLLR and U46619” value (platelets [1]) is reported as “at least 25 fold”, the “ADP-induced responses inhibited less effectively than SFLLR and U46619 responses” value (platelets [1]; ADP vs SFLLR and U46619) is reported as “approximately 20 fold” and the IC50 (platelets [1]; agonist ADP, read-out: IC50s of inhibition of platelet granule secretion induced with ADP) is reported as 8 µM. The IC50 (platelets [1]; agonists SFLLR and U-46619, read-out: IC50 SFLLR- and U-46619-induced activation) was 0.3 µM, the IC50 (platelets [1]; agonist Collagen, read-out: IC50 collagen-induced platelet granule release) was 70 µM and the “Inhibition of PMA-induced platelet activation” value (platelets [1]; agonist PMA) was “did not inhibit”. For the same compound, the “Inhibition of PMA-induced activation” value (platelets [1]; agonist PMA, up to 1000 μM) was “No inhibition” and the SFLLR-induced platelet aggregation (platelets [2]; agonist SFLLR) was “potent inhibitor”.
